Test results from patent US20200113982A1, “Composition and Uses Thereof” (Arborvitae Health and Wellbeing Pty. Ltd., priority 2015, published 2020).

Assay: Case Study 5: Patient A, high cholesterol, blood tests
Format: in vivo, human
Details: patient-reported, earlier statin use
Description: Patient A is a person who has had high cholesterol for approximately 20 years, and who is reasonably fit and is not overweight.
Patient A has been taking 100 mL of the composition of Example 1 each day for a period of 3 weeks. The results of a blood test on 14 Jan. 2015 (prior to taking the composition of Example 1) and a blood test on 24 Jun. 2015 (after taking the composition of Example 1 for 3 weeks) gave the results in Table 6: […]

## CC(C)c1c(C(=O)Nc2ccccc2)c(-c2ccccc2)c(-c2ccc(F)cc2)n1CC[C@@H](O)C[C@@H](O)CC(=O)O [Lipitor]
  side effects: muscle aches and pain, tiredness, joint pain and a general feeling of not being well
